The source of these data is paper PMC10829302 (BMC Microbiology, 2024).

This experiment concerns the target T1, tubulin (α/β heterodimer; β-tubulin) (Sus scrofa, UniProt P02554).
T1 construct: heterodimer of two closely related 55 kDa proteins (α and β tubulins), isolated from Porcine brain tissue; with α-tubulin
In words: tubulin polymerization assay with purified porcine brain tubulin (Cytoskeleton BK011P), positive control. Type of experiment: biochemical.

T1 sequence (P02554 whole entry): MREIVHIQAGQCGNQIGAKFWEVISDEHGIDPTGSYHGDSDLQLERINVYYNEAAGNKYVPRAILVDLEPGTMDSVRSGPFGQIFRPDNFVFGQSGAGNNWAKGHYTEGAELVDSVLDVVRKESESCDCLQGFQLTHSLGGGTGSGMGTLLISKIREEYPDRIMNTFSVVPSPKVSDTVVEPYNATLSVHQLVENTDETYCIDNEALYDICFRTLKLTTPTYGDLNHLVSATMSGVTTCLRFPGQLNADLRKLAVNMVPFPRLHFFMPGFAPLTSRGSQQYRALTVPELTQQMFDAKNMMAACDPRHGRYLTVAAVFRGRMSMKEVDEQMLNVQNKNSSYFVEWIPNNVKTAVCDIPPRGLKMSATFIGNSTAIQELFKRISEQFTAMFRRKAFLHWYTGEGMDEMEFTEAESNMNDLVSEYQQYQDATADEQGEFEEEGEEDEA
T1 sequence (P02550 whole entry partner): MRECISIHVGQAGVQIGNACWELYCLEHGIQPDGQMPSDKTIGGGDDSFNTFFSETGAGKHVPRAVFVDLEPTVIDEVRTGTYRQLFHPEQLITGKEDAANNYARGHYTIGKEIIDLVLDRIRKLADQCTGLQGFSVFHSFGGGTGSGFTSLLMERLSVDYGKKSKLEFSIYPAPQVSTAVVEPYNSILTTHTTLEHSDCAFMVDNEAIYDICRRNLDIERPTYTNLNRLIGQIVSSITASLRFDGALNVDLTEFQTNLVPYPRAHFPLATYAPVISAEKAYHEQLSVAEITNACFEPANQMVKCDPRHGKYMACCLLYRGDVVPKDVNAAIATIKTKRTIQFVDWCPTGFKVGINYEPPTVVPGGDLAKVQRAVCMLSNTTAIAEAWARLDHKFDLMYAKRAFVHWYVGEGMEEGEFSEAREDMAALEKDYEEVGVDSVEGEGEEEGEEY

For the compound `CC(=O)O[C@H]1C(=O)[C@@]2(C)[C@H]([C@H](OC(=O)c3ccccc3)[C@]3(O)C[C@H](OC(=O)[C@H](O)[C@@H](NC(=O)c4ccccc4)c4ccccc4)C(C)=C1C3(C)C)[C@]1(OC(C)=O)CO[C@@H]1C[C@@H]2O` [Paclitaxel], it took 2.34 µM to reach half-maximal inhibition (IC50).

A word on the IC50: it is the concentration needed to halve the response being measured.
